Source: patent publication US20230098667A1, “BENZODIAZEPINE DERIVATIVES, COMPOSITIONS, AND METHODS FOR TREATING COGNITIVE IMPAIRMENT” (priority 2019, published 2023)
“Also recorded” adds a separate entry of the source.

Tests used:
[1] = target: T1, GABAA α5 receptor (Rattus norvegicus, UniProt P19969); experiment: GABAA α5 receptor occupancy with Ro 15-4513 tracer; assay type: in vivo, Long Evans rats; conditions: i.v.
T1 construct: from tissue; host or cells: brain of living Long Evans rats; hippocampus and cerebellum dissected after i.v. dosing
From the text: Food and water were available ad libitum.

[2] = target: T2, GABAA receptors α5β3γ2 (GABA α5) (Homo sapiens, UniProt P18507+P31644); experiment: Binding activity on GABAAR: inhibition of [3H]Ro15-1788 binding, membranes of Ltk cells; conditions: α5β3γ2 Ltk cell membranes
T2 construct: membranes
T2 sequence (P31644 32-462): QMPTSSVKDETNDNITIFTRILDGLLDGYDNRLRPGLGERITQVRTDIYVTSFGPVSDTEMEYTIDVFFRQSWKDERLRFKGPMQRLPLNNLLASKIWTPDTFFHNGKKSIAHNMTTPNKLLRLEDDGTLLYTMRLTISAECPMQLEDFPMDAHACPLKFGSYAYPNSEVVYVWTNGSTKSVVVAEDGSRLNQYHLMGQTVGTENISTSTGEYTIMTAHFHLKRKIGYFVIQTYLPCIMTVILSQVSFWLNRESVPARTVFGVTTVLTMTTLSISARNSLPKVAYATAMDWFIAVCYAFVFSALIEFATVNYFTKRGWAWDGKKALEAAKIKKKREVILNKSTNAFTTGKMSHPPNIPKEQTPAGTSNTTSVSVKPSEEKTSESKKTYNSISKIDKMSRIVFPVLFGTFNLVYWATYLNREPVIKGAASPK
T2 sequence (P28472 26-473 partner): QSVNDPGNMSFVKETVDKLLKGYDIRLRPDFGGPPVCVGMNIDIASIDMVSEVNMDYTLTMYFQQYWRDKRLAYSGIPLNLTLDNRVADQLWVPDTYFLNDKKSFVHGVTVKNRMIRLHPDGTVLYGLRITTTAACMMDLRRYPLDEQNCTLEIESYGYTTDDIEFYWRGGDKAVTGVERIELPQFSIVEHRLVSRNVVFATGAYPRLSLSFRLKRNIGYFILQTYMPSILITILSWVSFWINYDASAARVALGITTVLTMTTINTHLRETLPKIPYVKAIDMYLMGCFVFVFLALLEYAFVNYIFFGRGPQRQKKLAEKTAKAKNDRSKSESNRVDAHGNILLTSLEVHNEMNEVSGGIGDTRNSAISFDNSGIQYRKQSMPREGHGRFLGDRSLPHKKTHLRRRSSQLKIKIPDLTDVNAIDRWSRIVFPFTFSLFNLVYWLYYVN
T2 sequence (P18507 40-467 limits assumed): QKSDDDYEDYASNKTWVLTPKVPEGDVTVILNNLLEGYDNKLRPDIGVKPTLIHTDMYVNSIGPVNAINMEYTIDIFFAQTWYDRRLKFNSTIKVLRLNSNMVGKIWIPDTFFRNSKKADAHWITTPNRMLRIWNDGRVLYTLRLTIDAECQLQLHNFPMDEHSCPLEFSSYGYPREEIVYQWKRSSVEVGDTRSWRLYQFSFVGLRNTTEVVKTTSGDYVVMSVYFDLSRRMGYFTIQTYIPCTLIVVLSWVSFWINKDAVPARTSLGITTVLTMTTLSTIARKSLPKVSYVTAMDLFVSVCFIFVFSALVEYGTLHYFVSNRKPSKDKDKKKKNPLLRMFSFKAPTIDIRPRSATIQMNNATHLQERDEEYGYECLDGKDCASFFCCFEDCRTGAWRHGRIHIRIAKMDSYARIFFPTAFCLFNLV
Method: Tissue culture and Membrane Preparation: The binding was performed on Ltk cells stably expressing GABAA receptors: α1β1γ2, α2β3γ2, α3β3γ2 and α5β3γ2 (provided by Merck Co., NJ, USA). Cells were seeded in 100 mm culture plates in DMEM/F12 medium containing 10% serum and antibiotics in 5% CO2 and allowed to grow for 1-2 days. GABAAR expression was then induced by dexamethasone as follows: 0.5 μM for 1 day for α5 containing and 2 μM for 3 days for α1, α2 and α3 containing GABAARs. After induction, cells were collected by scraping into Dulbecco's Phosphate buffered saline (DPBS, pH 7.4, Invitrogen, Carlsbad, Calif., USA) and centrifuged at 150×g for 10 min. The pellet was washed twice by re-suspension and centrifugation. The cell pellets from at least 5 different preps were combined, suspended in the binding assay buffer (50 mM KH2PO4; 1 mM EDTA; 0.2 M KCl, pH 7.4) and membranes prepared by sonication (3-5 times, 30 sec) using Branson Sonifier 150 (G. Heinmann, Germany). Protein content was determined using BCA assay (Bio-Rad Labs, Reinach, Switzerland) with Bovine Serum Albumin (Sigma Aldrich, St. Louis, Mo., USA) as the standard. Aliquots were prepared and stored at −20° C. for further use in binding assays.
Ligand Binding: Saturation binding curves were obtained by incubating membranes with increasing concentrations (0.01-8 nM) of [^3H]Rol5-1788 (Flumazepil, 75-85 Ci/mmol, PerkinElmer, MA, USA), with nonspecific binding measured in the presence of 10 μM diazepam.
All binding assays were performed for 1 h at 4° C. in assay buffer. The total assay volume was 0.5 ml containing 0.2 mg/ml protein for α5 and 0.4 mg/ml for α1, α2, and α3 containing GABAAR membranes. Incubations were terminated by filtration through GF/B filters using a 24-Cell Harvestor (Brandel, Gaithersburg, Md., USA) followed by 3 washes with ice-cold assay buffer. Filters were transferred to scintillation vials, 5 ml scintillation liquid added, vortex-mixed and kept in dark. Next day, radioactivity was obtained using a scintillation counter (Beckman Coulter, Brea, Calif., USA). All assays were performed in triplicate.
Data Analyses: Saturation and inhibition curves were obtained using GraphPad Prism software (GraphPad Software, Inc., CA, USA).

[3] = test system: aged-impaired (AI) rats; experiment: Radial Arm Maze (RAM) behavioral task, four-hour delay; assay type: in vivo, rat
Method: The same experiment was repeated using the same vehicle control and doses of ethyl 3-methoxy-7-methyl-9H-benzo[f]imidazo[1,5-a][1,2,4]triazolo[4,3-d][1,4]diazepine-10-carboxylate, where the vehicle control was tested 5 times, the 3 mg/kg dose of ethyl 3-methoxy-7-methyl-9H-benzo[f]imidazo[1,5-a][1,2,4]triazolo[4,3-d][1,4]diazepine-10-carboxylate was tested 4 times, and the other doses of ethyl 3-methoxy-7-methyl-9H-benzo[f]imidazo[1,5-a][1,2,4]triazolo[4,3-d][1,4]diazepine-10-carboxylate were tested twice.
Parametric statistics (paired t-tests) was used to compare the retention test performance of the AI rats in the four-hour delay version of the RAM task in the context of different doses of ethyl 3-methoxy-7-methyl-9H-benzo[f]imidazo[1,5-a][1,2,4]triazolo[4,3-d][1,4]diazepine-10-carboxylate and vehicle control (see FIG. 5).

[4] = test system: aged-impaired (AI) rats; experiment: Morris water maze behavioral task; assay type: in vivo, rat; conditions: 100 μg ICV
Method: The effects of 6,6 dimethyl-3-(3-hydroxypropyl)thio-1-(thiazol-2-yl)-6,7-dihydro-2-benzothiophen-4(5H)-one on the in vivo spatial memory retention of aged-impaired (AI) rats were assessed in a Morris water maze behavioral task. A water maze is a pool surrounded with a novel set of patterns relative to the maze.
Cognitively impaired aged rats were implanted unilaterally with a cannula into the lateral ventricle. Stereotaxic coordinates were 1.0 mm posterior to bregma, 1.5 mm lateral to midline, and 3.5 mm ventral to the skull surface. After about a week of recovery, the rats were pre-trained in a water maze for 2 days (6 trials per day) to locate a submerged escape platform hidden underneath the surface of the pool, in which the escape platform location varied from day to day. No intracerebroventricular (ICV) infusion was given during pre-training.
After pre-training, rats received ICV infusion of either 100 μg 6,6 dimethyl-3-(3-hydroxypropyl)thio-1-(thiazol-2-yl)-6,7-dihydro-2-benzothiophen-4(5H)-one (n=6) in 5 μl DMSO or vehicle DMSO (n=5) 40 min prior to water maze training and testing. Training consisted of 8 trials per day for 2 days where the hidden escape platform remained in the same location. Rats were given 60 seconds to locate the platform with a 60 seconds inter-trial interval. The rats were given a probe test (120 seconds) 24 hr. after the end of training where the escape platform was removed. During the training, there were 4 blocks, where each block had 4 training trials.
During a test trial 24 hr. after training, the escape platform was removed. The search/swim pattern of the rats was used to measure whether the rats remember where the escape platform was located during pre-trial training in order to test for the long-term memory of the rats. In this trial, “target annulus” is a designated area 1.5 times the size of the escape platform around the area where the platform was located during pre-trial training. “Opposite annulus” is a control area of the same size as the size of the target annulus, which is located opposite to the target annulus in the pool. If the rats had good long term memory, they would tend to search in the area surrounding the location where the platform was during the pre-trial training (i.e., the “target” annulus; and not the “opposite” annulus). “Time in annulus” is the amount of time in seconds that the rat spent in the target or opposite annulus area. “Number (#) of crossings” in annulus is the number of times the rat swam across the target or opposite annulus area.

[5] = probe test 24 hr. after training

T1 sequence (P19969 32-464 limits assumed): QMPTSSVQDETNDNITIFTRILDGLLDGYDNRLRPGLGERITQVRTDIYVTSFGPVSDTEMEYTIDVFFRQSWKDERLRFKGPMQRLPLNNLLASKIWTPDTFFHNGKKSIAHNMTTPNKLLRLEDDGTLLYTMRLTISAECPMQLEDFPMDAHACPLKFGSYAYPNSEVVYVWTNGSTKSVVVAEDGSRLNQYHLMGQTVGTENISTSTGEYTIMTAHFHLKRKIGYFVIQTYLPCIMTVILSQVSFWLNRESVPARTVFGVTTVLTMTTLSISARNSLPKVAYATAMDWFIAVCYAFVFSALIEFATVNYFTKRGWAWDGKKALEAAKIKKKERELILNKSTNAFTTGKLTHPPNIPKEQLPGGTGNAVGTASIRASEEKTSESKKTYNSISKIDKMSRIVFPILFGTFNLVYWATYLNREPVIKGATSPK

## CCOC(=O)c1ncn2c1CN(C)C(=O)c1cc(N=[N+]=[N-])ccc1-2 [Ro 15-4513]
[1]; tracer 1 μg/kg, after vehicle
  levels of Ro 15-4513 in cerebellum: 0.36 ± 0.02 ng/g
  levels of Ro 15-4513 in hippocampus: 1.93 ± 0.05 ng/g
  levels of Ro 15-4513 in hippocampus compared with cerebellum: > 5 fold

## COCc1nnn2c1Cc1c(C#Cc3cnc(C)n3C)ncn1-c1ccc(Cl)cc1-2 [Compound 740]
[2]
  Ki: < 0.1 µM

## CCOC(=O)c1ncn2c1Cn1c(C)nnc1-c1cc(OC)ccc1-2 [ethyl 3-methoxy-7-methyl-9H-benzo[f]imidazo[1,5-a][1,2,4]triazolo[4,3-d][1,4]diazepine-10-carboxylate]
[3]; 3 mg/kg
  memory performance relative to vehicle control: significantly improved memory performance
[3]; 10 mg/kg
  memory performance relative to vehicle control: significantly improved memory performance
[1]; 0.01-10 mg/kg
  effect on Ro 15-4513 binding in hippocampus and cerebellum: reduced Ro 15-4513 binding in hippocampus, without affecting cerebellum levels of Ro 15-4513; also recorded: blocked the binding of Rol54513 in the hippocampus but did not affect binding of Rol5413 in the cerebellum
[1]; 10 mg/kg
  GABAA α5 receptor occupancy: > 90%

## COCc1nnn2c1Cc1c(C#Cc3cn(C)nc3OC)ncn1-c1ccc(Cl)cc1-2 [Compound 738]
[2]
  Ki: < 0.1 µM

## COCc1nnc2n1Cc1c(C#Cc3cn(C)nc3OC)ncn1-c1ccc(Cl)cc1-2 [Compound 737]
[2]
  Ki: < 0.1 µM

## COCc1nnc2n1Cc1c(C#Cc3cn(C)nc3OC)ncn1-c1ccc(OC)cc1-2 [Compound 736]
[2]
  Ki: < 0.1 µM

## COc1ccc2c(c1)-n1nncc1Cc1c(C#Cc3cn(C)nc3OC)ncn1-2 [Compound 735]
[2]
  Ki: < 0.1 µM

## CC1(C)CC(=O)c2c(SCCCO)sc(-c3nccs3)c2C1 [6,6 dimethyl-3-(3-hydroxypropyl)thio-1-(thiazol-2-yl)-6,7-dihydro-2-benzothiophen-4(5H)-one]
[4]; [5]
  number of crossings of target annulus versus opposite annulus: crossed the “target annulus” more often
  time in target annulus versus opposite annulus: spent significantly more time in the target annulus
[4]; training block 1
  time to find the escape platform (escape latency): about 24 seconds
[4]; training block 4
  time to find the escape platform (escape latency): about 9.6 seconds

## COc1ccc2c(c1)-n1nncc1Cc1c(C#Cc3cnc(OC)c(F)c3)ncn1-2 [Compound 732]
[2]
  Ki: 0.1 to 1 µM

## COc1ncc(C#Cc2ncn3c2Cc2cnnn2-c2cc(Cl)ccc2-3)cc1F [Compound 734]
[2]
  Ki: < 0.1 µM

## COCc1nnc2n1Cc1c(C#Cc3cnc(OC)c(C(F)(F)F)c3)ncn1-c1ccc(OC)cc1-2 [Compound 731]
[2]
  Ki: 0.1 to 1 µM
